Experimental data: patent publication US20240409585A1, “MACROCYCLIC IMMUNOMODULATORS” (priority 2021, published 2024)
Where two headings read alike, the source gives them in different places. Numbered stars: 1 amine (or outer) side, 2 acyl side, 3 side chain; on linkers, the order of the positions; unused ones are H or OH. Bridge positions count the residues as written; N and C are the ends. Square brackets hold non-standard residues; d marks the D form. Peptide text beside a SMILES is read from it. * marks the point of attachment. Bip(4'-COOH) = N[C@@H](Cc1ccc(-c2ccc(C(=O)O)cc2)cc1)C(=O)O; Bip(4'-NHAc) = CC(=O)Nc1ccc(-c2ccc(C[C@H](N)C(=O)O)cc2)cc1; X24 = COc1ccccc1-c1cn(C[C@H](N[*:1])C(=O)[*:2])nn1; X32 = N=C(N)NCc1ccc(C[C@H](N[*:1])C(=O)[*:2])cc1; Phe(3-CF3) = N[C@@H](Cc1cccc(C(F)(F)F)c1)C(=O)O; Ala(morpholin-4-yl) = N[C@@H](CN1CCOCC1)C(=O)O; Phe(4-COOH) = N[C@@H](Cc1ccc(C(=O)O)cc1)C(=O)O; Bip = N[C@@H](Cc1ccc(-c2ccccc2)cc1)C(=O)O; Phe(3-Cl) = N[C@@H](Cc1cccc(Cl)c1)C(=O)O; Phe(3-Me) = Cc1cccc(C[C@H](N)C(=O)O)c1; Val(3-OH) = CC(C)(O)[C@H](N)C(=O)O; hPhe = N[C@@H](CCc1ccccc1)C(=O)O; Cha = N[C@@H](CC1CCCCC1)C(=O)O; Suc = O=C(CCC(=O)[*:2])[*:1]; Carboxymethyl = O=C(O)C*; NMeA = CN[C@@H](C)C(=O)O; Orn = NCCC[C@H](N)C(=O)O; Dab = NCC[C@H](N)C(=O)O; Dap = NC[C@H](N)C(=O)O

Target: T1, Alexa fluor-647 labeled human PD-L1-Ig binding to Jurkat cell line over-expressing human PD-1 (Homo sapiens, UniProt Q15116)
T1 construct: expressed in transfected cells; host or cells: Jurkat
T1 sequence (Q15116 25-288): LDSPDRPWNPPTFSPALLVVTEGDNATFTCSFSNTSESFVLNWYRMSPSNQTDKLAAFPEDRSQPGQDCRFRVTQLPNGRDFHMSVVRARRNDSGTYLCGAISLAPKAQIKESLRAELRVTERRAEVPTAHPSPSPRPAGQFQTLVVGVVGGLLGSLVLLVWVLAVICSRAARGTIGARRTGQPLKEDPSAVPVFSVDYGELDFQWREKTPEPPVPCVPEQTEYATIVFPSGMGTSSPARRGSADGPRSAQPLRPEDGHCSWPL
Assay: Jurkat-PD-1 Cell Binding High-Content Screening Assay (CBA): Method 3 (Alexa fluor-647 labeled PD-L1-Ig)
Settings: Jurkat-PD-1 cells, Alexa fluor-647 labeled PD-L1-Ig 177 nM
In short: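 Readout by high-content imaging of PFA-fixed, Hoechst-stained cells after 1 h with 177 nM (final) Alexa fluor-647 PD-L1-Ig. Compound was added first to hPD-1 Jurkat cells in RPMI plus 10% FCS for 2 h at 37 °C.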

[1] = head μM, read-out: CBA Method 3 μM

Row | Structure (SMILES) | IC50 (nM, read-out: CBA Method 3) [nM] | IC50 [1] [nM]
1 | CC[C@H](C)[C@@H]1NC(=O)CSC[C@@H](C(=O)N[C@@H](CCN)C(N)=O)NC(=O)[C@H](CCCN)NC(=O)[C@H](C(C)C)NC(=O)[C@H](CC2CCCCC2)NC(=O)[C@H](CCN)NC(=O)[C@@H](CC(C)C)NC(=O)[C@H](C)N(C)C(=O)[C@H](CCC(N)=O)NC(=O)[C@H](Cc2ccc(-c3ccccc3)cc2)NC(=O)[C@H](Cc2ccc(C(=O)O)cc2)NC(=O)[C@H](Cc2cccc(C)c2)NC(=O)[C@H](CC(=O)O)NC(=O)[C@H](Cc2ccc(OCC(=O)O)cc2)NC1=O [Example 5268] ({CH2CO}-IY(Carboxymethyl)D[Phe(3-Me)][Phe(4-COOH)][Bip]Q[NMeA][dL][Dab][Cha]V[Orn]C[Dab]-NH2; thioether N-14) | 5.3 | –
2 | CC(=O)Nc1ccc(-c2ccc(C[C@@H]3NC(=O)[C@H](Cc4cccc(C)c4)NC(=O)[C@H](CC(=O)O)NC(=O)[C@H](Cc4ccc(-c5ccc(C(=O)O)cc5)cc4)NC(=O)[C@H](CN4CCOCC4)NC(=O)CSC[C@@H](C(=O)N[C@@H](CCN)C(N)=O)NC(=O)[C@H](Cc4cnc[nH]4)NC(=O)[C@H](C(C)(C)O)NC(=O)[C@H](CC4CCCCC4)NC(=O)[C@H](CCN)NC(=O)[C@@H](CC(C)C)NC(=O)[C@H](C)N(C)C(=O)[C@H](Cc4ccc(OCC(=O)O)cc4)NC(=O)[C@H](Cc4ccc(-c5ccccc5)cc4)NC3=O)cc2)cc1 [Example 5134] ({CH2CO}-[Ala(morpholin-4-yl)][Bip(4'-COOH)]D[Phe(3-Me)][Bip(4'-NHAc)][Bip]Y(Carboxymethyl)[NMeA][dL][Dab][Cha][Val(3-OH)]HC[Dab]-NH2; thioether N-14) | – | 30
3 | Cc1cccc(C[C@@H]2NC(=O)[C@H](CC(=O)O)NC(=O)[C@H](Cc3ccc(-c4ccc(C(=O)O)cc4)cc3)NC(=O)[C@H](CN3CCOCC3)NC(=O)CSC[C@@H](C(=O)N[C@@H](CCN)C(N)=O)NC(=O)[C@H](CCC(=O)O)NC(=O)[C@H](C(C)C)NC(=O)[C@H](CC(C)C)NC(=O)[C@H](CC(N)=O)NC(=O)[C@@H](CC(C)C)NC(=O)[C@H](C)N(C)C(=O)[C@H](C(C)C)NC(=O)[C@H](Cc3ccc(-c4ccccc4)cc3)NC(=O)[C@H](CC(C)C)NC2=O)c1 [Example 5125] ({CH2CO}-[Ala(morpholin-4-yl)][Bip(4'-COOH)]D[Phe(3-Me)]L[Bip]V[NMeA][dL]NLVEC[Dab]-NH2; thioether N-14) | 9.4 | –
4 | Cc1cccc(C[C@@H]2NC(=O)[C@H](CC(=O)O)NC(=O)[C@H](Cc3ccc(C(=O)O)cc3)NC(=O)[C@H](C)NC(=O)CSC[C@@H](C(=O)N[C@@H](CCN)C(N)=O)NC(=O)[C@H](CCC(=O)O)NC(=O)[C@H](C(C)C)NC(=O)[C@H](CC3CCCCC3)NC(=O)[C@H](CCN)NC(=O)[C@@H](CC(C)C)NC(=O)[C@H](C)N(C)C(=O)[C@H](Cc3ccc(OCC(=O)O)cc3)NC(=O)[C@H](Cc3ccc(-c4ccccc4)cc3)NC(=O)[C@H](Cc3ccc(C(=O)O)cc3)NC2=O)c1 [Example 5138] ({CH2CO}-A[Phe(4-COOH)]D[Phe(3-Me)][Phe(4-COOH)][Bip]Y(Carboxymethyl)[NMeA][dL][Dab][Cha]VEC[Dab]-NH2; thioether N-14) | – | 30
5 | Cc1cccc(C[C@@H]2NC(=O)[C@H](CC(=O)O)NC(=O)[C@H](Cc3ccc(OCC(=O)O)cc3)NC(=O)[C@H](Cc3cccc(Cl)c3)NC(=O)CSC[C@@H](C(=O)N[C@@H](CCN)C(N)=O)NC(=O)[C@H](CCCN)NC(=O)[C@H](C(C)C)NC(=O)[C@H](CC3CCCCC3)NC(=O)[C@H](CCN)NC(=O)[C@@H](CC(C)C)NC(=O)[C@H](C)N(C)C(=O)[C@H](CCC(N)=O)NC(=O)[C@H](Cc3ccc(-c4ccccc4)cc3)NC(=O)[C@H](Cc3ccc(C(=O)O)cc3)NC2=O)c1 [Example 5286] ({CH2CO}-[Phe(3-Cl)]Y(Carboxymethyl)D[Phe(3-Me)][Phe(4-COOH)][Bip]Q[NMeA][dL][Dab][Cha]V[Orn]C[Dab]-NH2; thioether N-14) | 1.8 | –
6 | Cc1cccc(C[C@@H]2NC(=O)[C@H](CC(=O)O)NC(=O)[C@H](Cc3ccc(OCC(=O)O)cc3)NC(=O)[C@H](Cc3ccc(CNC(=N)N)cc3)NC(=O)CSC[C@@H](C(=O)N[C@@H](CCN)C(N)=O)NC(=O)[C@H](CCCN)NC(=O)[C@H](C(C)C)NC(=O)[C@H](CC3CCCCC3)NC(=O)[C@H](CCN)NC(=O)[C@@H](CC(C)C)NC(=O)[C@H](C)N(C)C(=O)[C@H](CCC(N)=O)NC(=O)[C@H](Cc3ccc(-c4ccccc4)cc3)NC(=O)[C@H](Cc3ccc(C(=O)O)cc3)NC2=O)c1 [Example 5278] ({CH2CO}-[X32]Y(Carboxymethyl)D[Phe(3-Me)][Phe(4-COOH)][Bip]Q[NMeA][dL][Dab][Cha]V[Orn]C[Dab]-NH2; thioether N-14) | – | 310
7 | CC(=O)Nc1ccc(-c2ccc(C[C@@H]3NC(=O)[C@H](Cc4cccc(C)c4)NC(=O)[C@H](CC(=O)O)NC(=O)[C@H](Cc4ccc(C(=O)O)cc4)NC(=O)[C@H](CC4CCCCC4)NC(=O)CSC[C@@H](C(=O)N[C@@H](CCN)C(N)=O)NC(=O)[C@H](CCC(=O)O)NC(=O)[C@H](C(C)C)NC(=O)[C@H](CC4CCCCC4)NC(=O)[C@H](CCN)NC(=O)[C@@H](CC(C)C)NC(=O)[C@H](C)N(C)C(=O)[C@H](Cc4ccc(OCC(=O)O)cc4)NC(=O)[C@H](Cc4ccc(-c5ccccc5)cc4)NC3=O)cc2)cc1 [Example 5202] ({CH2CO}-[Cha][Phe(4-COOH)]D[Phe(3-Me)][Bip(4'-NHAc)][Bip]Y(Carboxymethyl)[NMeA][dL][Dab][Cha]VEC[Dab]-NH2; thioether N-14) | 4.9 | –
8 | Cc1cccc(C[C@@H]2NC(=O)[C@H](CC(=O)O)NC(=O)[C@H](Cc3ccc(-c4ccc(C(=O)O)cc4)cc3)NC(=O)[C@H](CN3CCOCC3)NC(=O)CSC[C@@H](C(=O)N[C@@H](CCN)C(N)=O)NC(=O)[C@H](CCC(=O)O)NC(=O)[C@H](C(C)C)NC(=O)[C@H](CC3CCCCC3)NC(=O)[C@H](CC(N)=O)NC(=O)[C@@H](CC(C)C)NC(=O)[C@H](C)N(C)C(=O)[C@H](Cc3ccc(OCC(=O)O)cc3)NC(=O)[C@H](Cc3ccc(-c4ccccc4)cc3)NC(=O)[C@H](Cc3ccc(-c4ccc(C(=O)O)cc4)cc3)NC2=O)c1 [Example 5128] ({CH2CO}-[Ala(morpholin-4-yl)][Bip(4'-COOH)]D[Phe(3-Me)][Bip(4'-COOH)][Bip]Y(Carboxymethyl)[NMeA][dL]N[Cha]VEC[Dab]-NH2; thioether N-14) | – | 30
9 | CC(C)C[C@H]1NC(=O)[C@H](C)N(C)C(=O)[C@H](Cc2ccc(C(=O)O)cc2)NC(=O)[C@H](Cc2ccc(-c3ccccc3)cc2)NC(=O)[C@H](Cc2ccc(C(=O)O)cc2)NC(=O)[C@H](Cc2cccc(C(F)(F)F)c2)NC(=O)[C@H](CC(=O)O)NC(=O)[C@H](Cc2ccc(C(=O)O)cc2)NC(=O)[C@H](CN2CCOCC2)NC(=O)CSC[C@@H](C(=O)N[C@@H](CCN)C(N)=O)NC(=O)[C@H](CNC(=O)CCC(=O)O)NC(=O)[C@H](C(C)C)NC(=O)[C@H](CC2CCCCC2)NC(=O)[C@H](CCN)NC1=O [Example 5144] ({CH2CO}-[Ala(morpholin-4-yl)][Phe(4-COOH)]D[Phe(3-CF3)][Phe(4-COOH)][Bip][Phe(4-COOH)][NMeA][dL][Dab][Cha]V[Dap](Suc)C[Dab]-NH2; thioether N-14) | 9.7 | –
10 | Cc1cccc(C[C@@H]2NC(=O)[C@H](CC(=O)O)NC(=O)[C@H](Cc3ccc(OCC(=O)O)cc3)NC(=O)[C@H](CCCCN)NC(=O)CSC[C@@H](C(=O)N[C@@H](CCN)C(N)=O)NC(=O)[C@H](CCCN)NC(=O)[C@H](C(C)C)NC(=O)[C@H](CC3CCCCC3)NC(=O)[C@H](CCN)NC(=O)[C@@H](CC(C)C)NC(=O)[C@H](C)N(C)C(=O)[C@H](CCC(N)=O)NC(=O)[C@H](Cc3ccc(-c4ccccc4)cc3)NC(=O)[C@H](Cc3ccc(C(=O)O)cc3)NC2=O)c1 [Example 5181] ({CH2CO}-KY(Carboxymethyl)D[Phe(3-Me)][Phe(4-COOH)][Bip]Q[NMeA][dL][Dab][Cha]V[Orn]C[Dab]-NH2; thioether N-14) | 3.8 | –
11 | CC(C)C[C@H]1NC(=O)[C@H](C)N(C)C(=O)[C@H](CCC(N)=O)NC(=O)[C@H](Cc2ccc(-c3ccccc3)cc2)NC(=O)[C@H](CCc2ccccc2)NC(=O)[C@H](Cc2cccc(C(F)(F)F)c2)NC(=O)[C@H](CC(=O)N[C@@H](CC(=O)O)C(=O)O)NC(=O)[C@H](Cc2ccc(OCC(=O)O)cc2)NC(=O)[C@H](CN2CCOCC2)NC(=O)CSC[C@@H](C(=O)N[C@@H](CCN)C(N)=O)NC(=O)[C@H](CCCN)NC(=O)[C@H](C(C)C)NC(=O)[C@H](CC2CCCCC2)NC(=O)[C@H](CCN)NC1=O [Example 5294] ({CH2CO}-[Ala(morpholin-4-yl)]Y(Carboxymethyl)D(Asp)[Phe(3-CF3)][hPhe][Bip]Q[NMeA][dL][Dab][Cha]V[Orn]C[Dab]-NH2; thioether N-14) | – | 40
12 | COc1ccccc1-c1cn(C[C@@H]2NC(=O)[C@H](Cc3ccc(C(=O)O)cc3)NC(=O)[C@H](Cc3cccc(C(F)(F)F)c3)NC(=O)[C@H](CC(=O)O)NC(=O)[C@H](Cc3ccc(C(=O)O)cc3)NC(=O)[C@H](CN3CCOCC3)NC(=O)CSC[C@@H](C(=O)N[C@@H](CCN)C(N)=O)NC(=O)[C@H](CCC(=O)O)NC(=O)[C@H](C(C)C)NC(=O)[C@H](CC3CCCCC3)NC(=O)[C@H](CCN)NC(=O)[C@@H](CC(C)C)NC(=O)[C@H](C)N(C)C(=O)[C@H](Cc3ccc(C(=O)O)cc3)NC2=O)nn1 [Example 5197] ({CH2CO}-[Ala(morpholin-4-yl)][Phe(4-COOH)]D[Phe(3-CF3)][Phe(4-COOH)][X24][Phe(4-COOH)][NMeA][dL][Dab][Cha]VEC[Dab]-NH2; thioether N-14) | – | 450
13 | Cc1cccc(C[C@@H]2NC(=O)[C@H](CC(=O)O)NC(=O)[C@H](Cc3ccc(OCC(=O)O)cc3)NC(=O)[C@H](Cc3ccc(OCC(=O)O)cc3)NC(=O)CSC[C@@H](C(=O)N[C@@H](CCN)C(N)=O)NC(=O)[C@H](CCCN)NC(=O)[C@H](C(C)C)NC(=O)[C@H](CC3CCCCC3)NC(=O)[C@H](CCN)NC(=O)[C@@H](CC(C)C)NC(=O)[C@H](C)N(C)C(=O)[C@H](CCC(N)=O)NC(=O)[C@H](Cc3ccc(-c4ccccc4)cc3)NC(=O)[C@H](Cc3ccc(C(=O)O)cc3)NC2=O)c1 [Example 5168] ({CH2CO}-Y(Carboxymethyl)Y(Carboxymethyl)D[Phe(3-Me)][Phe(4-COOH)][Bip]Q[NMeA][dL][Dab][Cha]V[Orn]C[Dab]-NH2; thioether N-14) | 1.4 | –
